The text below walks through data of patent US20150224164A1, “TREATMENT OF AUTISM SPECTRUM DISORDERS USING GLYCYL-L-2-METHYLPROLYL-L-GLUMATIC ACID” (Neuren Pharmaceuticals Limited, priority 2013, published 2015).

Assay [1] deals with ChAT-positive neurons in the striatum. The assay can be described thus: ChAT immunohistochemistry in striatum of aging rats. The format is in vivo, rat. The note with it: single s.c. dose 0.012-12 mg/kg; 18-month old rats; 3 days after treatment. On the procedure: Eighteen-month old male rats received one of five treatments. A control group was treated with vehicle (saline alone (n=4) and four groups were treated with a single dose of G-2-MePE. […] Rats were sacrificed with an overdose of pentobarbital 3 days after drug treatment. Brains were perfused with normal saline and 4% paraformaldehyde and fixed in perfusion fixative overnight. Brains were stored in 25% sucrose in 0.1M PBS (pH7.4) until the tissue sank. Frozen coronal sections of striatum were cut with a microtome and stored in 0.1% sodium azide in 0.1M PBS at 4° C. Immunoreactivity for choline acetyltransferase (ChAT) was established by staining using a free floating section method. Briefly, antibodies were diluted in 1% goat serum. The sections were incubated in 0.2% triton in 0.1M PBS/Triton™ at 4° C. overnight before Immunohistochemical staining. The sections were pre-treated with 1% H2O2 in 50% methanol for 20 min. The sections were then incubated with rabbit (Rb) anti-ChAT (1:5000) antibodies (the primary antibodies) in 4D on a shaker for two days. The sections were washed using PBS/Triton™ (15 minutes×3d) and then incubated with goat anti-rabbit biotinylated secondary antibodies (1:1000) at room temperature overnight. […] The size of the striatal region used for the count was measured using an image analyser. […] Data were analysed using a paired t-test and presented as mean+/−SEM.

Assay [2] relates to neurons in the CA3 region of the hippocampus. The assay can be described thus: Neuron soma size in hippocampus CA3 (Example 10). The assay is classed as in vivo, mouse. On the procedure:
We also measure the effect of G-2-MePE treatment on neuron soma size in the hippocampus. Mice are treated with G-2-MePE as described above for locomotor activity.

Assay [3] has as its system MeCP2 deficient mice. The assay can be described thus: Survival after oral administration (Example 11). The format is in vivo, mouse. The note with it: 20 or 80 mg/kg daily. On the procedure:
Therefore, we administer G-2-MePE orally to MeCP2 deficient mice as described in US 2009/0074865. Briefly, an aqueous solution, a water-in-oil emulsion (micro-emulsion, coarse emulsion or liquid crystal), or a gel composition containing a pharmaceutically effective amount of G-2-MePE (20 or 80 mg/kg per animal) is administered daily. In control MeCP2 deficient animals, we administer saline only, and wild-type animals are used to obtain baseline data similar to the design of studies described in Example 8 above.

Assay [4] has as its system MeCP2 deficient mice. The assay can be described thus: Seizure activity, electroencephalographic recordings (Example 12). As to conditions: mouse, in vivo. The text has this: Electroencephalograpic recordings of wild-type mice and MeCP2 deficient mice treated with either saline or G-2-MePE are obtained using methods described in U.S. Pat. No. 7,714,020.

Where a SMILES comes first, the peptide text is derived from it.

Turning to `C[C@@]1(C(=O)N[C@@H](CCC(=O)O)C(=O)O)CCCN1C(=O)CN` [Example G-2-MePE, Glycyl-L-2-methylprolyl-L-glutamic acid] (HELM PEPTIDE1{G.[C[C@@]1(C(=O)[*:2])CCCN1[*:1]].E}$$$$V2.0), the “number of ChAT-immunopositive neurons” value in assay [1] was “increased”. The average soma size entry in assay [2] (KO animals) was “increases average soma size”. Besides, the soma size entry in assay [2] (wild type animals) is “little or no effect”. Moreover, in the assay with MeCP2 deficient mice [3], the survival result is “survival is increased substantially”. Moreover, the “motor seizures and non-convulsive seizures” value in the assay on MeCP2 deficient mice [4] is “effective in decreasing both motor seizures and non-convulsive seizures”.
